We go through ten compounds from PMC9317696, “New Benzil and Isoflavone Derivatives with Cytotoxic and NO Production Inhibitory Activities from Placolobium vietnamense” (Molecules, 2022).

Like-named read-outs stand apart in the source and are kept apart here.

Format in all cases: cell-based
For data set [1], the system named is NO production in macrophage RAW 264.7 cells. The experiment in a line: Inhibition of LPS-induced NO production in RAW 264.7 macrophages (Griess). The note with it: Mus musculus. As to the method: (§1) RAW 264.7 cells were stocked in Dulbecco’s Modified Essential and grown at the condition of 37 °C in DMEM supplemented with 10% heat-inactivated FBS, streptomycin sulfate (100 µg/mL), and penicillin (100 units/mL) in a humidified environment of 5% CO2. The RAW 264.7 cells were pre-incubated every two days.
The RAW 264.7 cells were stimulated with or without 1 μg/mL of LPS (lipopolysaccharide), which was purchased from Sigma Chemical Co. (St. Louis, MO, USA), for 24 h with or without 0.5% DMSO, celastrol, and isolated compounds at the indicated concentrations. The culture supernatant (100 μL) was then reacted with 100 μL of Griess reagent. After the Griess assay, the remaining cells were used to screen for their viability using colorimetric assay-MTT (Sigma Chemical Co., St. Louis, MO, USA).
(Nitrite, measured by Griess reagent, commonly stands in for NO production.)

Data set [2] in a line: Cell viability assay (MTT) on RAW 264.7 cells. The note with it: mouse, read-out: cytotoxicity toward RAW 264.7 cells IC50. As for the experimental part: as §1
The cell viability assay was used to determine the cytotoxic effect of the isolated compounds on RAW 264.7 cells. At a density of 1 × 10^5 cells per well, RAW 264.7 cells were seeded on a 96-well plate and allowed to adhere for 4 h. Then, the cells were treated with 0.5% DMSO, celastrol, and isolated compounds at the indicated concentrations. Celastrol was used as a positive control. After incubating 24 h, the viable cells were measured with a colorimetric assay based on the mitochondria’s ability in viable cells to reduce MTT [18]. The viability cells were treated with vehicle only and were defined as 100% viable. [OD570 (treated cell culture) × 100]/OD570 was the formula used to determine the percentage of macrophage surviving cells after treatment (vehicle control).

For another data set, the system named is Hep G2 cells. Description: Cytotoxicity assay (MTT) against Hep G2 cell line. As to conditions: Homo sapiens. As to the method: According to a previous procedure, the cytotoxic evaluation of 1–8 against the growth of human hepatocellular carcinoma (Hep G2) cell line was carried out. The positive control was ellipticine, a powerful anticancer medication with various modes of action. The cancer cells were grown in Dulbecco’s Modified Essential Medium (DMEM) at 37 °C in a 5 % CO2 environment with 10% fetal bovine serum (FBS), 1% penicillin and streptomycin, and 1% L-glutamine. The investigated compounds were added at concentrations ranging from 0.5 to 128 µg/mL by dissolving in DMSO (20 mg/mL), and the incubation was carried out once more for 72 h under the same conditions. Following the procedure, an MTT solution (10 µL, 5 mg/mL) was added to each well. The percentage of cell viability vs. sample concentration was plotted using SigmaPlot 10 (Systat Software Inc., San Jose, CA, USA) to calculate the IC50 values.

Setting [3] is: HepG2, 72 h, read-out: Cytotoxicity (IC50, µM).
Setting [4] is: RAW264.7, RAW 264.7 cells, 1 μg/mL LPS, 24 h, Griess reagent, mean of three experiments ± SD, read-out: NO Production (IC50).

For orientation: IC50 means the midpoint of a concentration-inhibition curve. On to `CC1=C(O)C(=O)C=C2C1=CC=C1[C@@]2(C)CC[C@@]2(C)[C@@H]3C[C@](C)(C(=O)O)CC[C@]3(C)CC[C@]12C` [Celastrol, celastrol, reference compound], for which, in data set [1] (RAW264.7, 24 h, read-out: NO Production (IC50, µM)), the IC50 was found to be 1 ± 0.1 µM.

Take `COc1ccc(-c2coc3c4c(c(OC)cc3c2=O)OC(C)(C)CC4)cc1` [Compound 1, placovinone A]: the IC50 at 24 h in data set [2] amounted to 79.2 µM. Also, the IC50 is 8 ± 0.2 µM in the data set on Hep G2 cells (setting [3]) and 13.7 ± 0.5 µM in data set [1] (setting [4]).

For the compound `COc1cc(OC)c(C(=O)C(=O)c2cc(OC)c3c(c2O)C=CC(C)(C)O3)cc1OC` [Compound 2, placovinone B], the half-maximal inhibitory concentration (IC50) with Hep G2 cells (setting [3]) is 19.8 ± 1.5 µM; in data set [1] (setting [4]), 31 ± 0.3 µM.

With `COc1cc(OC)c(OC)cc1CC(=O)c1cc(OC)c2c(c1O)C=CC(C)(C)O2` [Compound 3, placovinone C], the values for the IC50 (with Hep G2 cells (setting [3]); in data set [1] (setting [4])) were 22.9 ± 0.5 µM and 47.4 ± 0.3 µM, respectively.

Regarding `COc1ccc(CC(=O)c2cc(OC)c3c(c2O)C=CC(C)(C)O3)cc1` [Compound 4, placovinone D], the half-maximal inhibitory concentration (IC50) at 24 h in data set [2] turned out to be 42.6 µM. For the same compound, the figures for the IC50 (with Hep G2 cells (setting [3]); in data set [1] (setting [4])) were 23.4 ± 0.5 µM and 15.5 ± 0.4 µM, respectively.

For `COc1cc2c(cc1-c1coc3c4c(c(OC)cc3c1=O)OC(C)(C)C=C4)OCO2` [Compound 5, ichthynone], the IC50 in the data set on Hep G2 cells (setting [3]) is 99.1 ± 0.9 µM; in data set [1] (setting [4]), > 100 µM.

For the compound `COc1cc2c(=O)c(-c3ccc4c(c3)OCO4)coc2c2c1OC(C)(C)C=C2` [Compound 6, durmillone], the IC50 in the data set with Hep G2 cells (setting [3]) is 71.6 ± 0.6 µM; in data set [1] (setting [4]) it was > 100 µM.

In the case of `CC1(C)C=Cc2c(ccc3c(=O)c(-c4ccc5c(c4)OCO5)coc23)O1` [Compound 7, calopogoniumisoflavone B], the IC50 in the data set with Hep G2 cells (setting [3]) was 66.6 ± 0.5 µM; in data set [1] (setting [4]) it was > 100 µM.

`COc1ccc(-c2coc3c4c(ccc3c2=O)OC(C)(C)C=C4)cc1OC` [Compound 8, 4′,5′-dimethoxy-6,6-dimethylpyranoisoflavone]: the values for the half-maximal inhibitory concentration (IC50) (with Hep G2 cells (setting [3]); in data set [1] (setting [4])) were 35.6 ± 0.3 µM and 54.7 ± 0.2 µM, respectively.

`Cc1c2ccncc2c(C)c2c1[nH]c1ccccc12` [Ellipticine, ellipticine, reference compound]: the IC50 in the data set on Hep G2 cells (HepG2, Hep G2 cells, 72 h, MTT, mean of three experiments ± SD, read-out: Cytotoxicity (IC50)) worked out at 0.43 ± 0.03 µM.
